Read-outs that look alike come from different tables or passages of the source. Marks after values point to notes of the source that are not given here.
Key:
HCMV AD169 strain = assay: Inhibitory effect on HCMV in vitro (MEC, therapeutic index); assay type: cell-based, human cytomegalovirus; conditions: HCMV AD169, 100 times TCD50, 10 days of culture
Experimental: Human embryonic lung fibroblast cell strain (purchased from Sino Best Biological Technology Co., Ltd.). The cells were cultured and subcultured according to the conventional method.
HCMV AD169 strain was purchased from American Type Culture Collection (ATCC).
Cells were inoculated in a 96-well plate, allowed to grow into monolayers, and inoculated with a virus challenge of 100 times TCD50. Starting from TD0, each drug was diluted stepwise according to 10-fold gradient to prepare 5 concentrations, with 4 wells set for each concentration. In addition, 4 wells of normal cell control and 4 wells of virus control were set.

[1] = test system: Human embryonic lung fibroblast cell strain
[2] = test system: carrageenan-induced paw swelling; assay: Carrageenan-induced paw swelling in rats; assay type: in vivo, Wistar rats; conditions: 100 mg/kg, sublingual intravenous injection
Experimental: Each group was administered by sublingual intravenous injection. Before the study, the normal volume of the right hind limb was measured by the capillary magnification method. To avoid errors, the measurement position should be fixed and performed by one person before and after administration. The average of the two measurements was taken as the normal volume of the right hind limb of the rats prior to administration. […] The inter-group t-test was performed by the difference percentage (swelling rate) of the plantar volume before and after the inflammation induction, and the differences among the groups were compared.

enterovirus 71 (EV71) = assay: Effect of drugs on viral cytopathic effect, effective antiviral rate (ER%); assay type: cell-based; conditions: Vero cells, 100TCID50, drug at maximum non-toxic concentration, 72 h, MTT
influenza virus [3] = assay type: in vivo, Kunming mice
[4] = test system: Coxsackievirus A16 (CoxA16); assay: Effect of drugs on viral cytopathic effect, effective antiviral rate (ER%); assay type: cell-based; conditions: Vero cells, 100TCID50, drug at maximum non-toxic concentration, 72 h, MTT
influenza virus [5] = assay type: in vivo, Kunming mice; conditions: lung suspension, mice infected with influenza virus, 5 days
Parainfluenza virus [6] = assay: Effect of drugs on viral cytopathic effect, effective antiviral rate (ER%); assay type: cell-based; conditions: Vero cells, 100TCID50, drug at maximum non-toxic concentration, 72 h, MTT
parainfluenza virus [7] = assay type: in vivo, Kunming mice; conditions: […], 5 days
Vero cells = assay: Cytotoxicity test of drugs on Vero cells (MTT); conditions: 72 h
Adenovirus (AdV) = assay: Effect of drugs on viral cytopathic effect, effective antiviral rate (ER%); assay type: cell-based; conditions: Vero cells, 100TCID50, drug at maximum non-toxic concentration, 72 h, MTT
Coxsackievirus B3 (CVB3) = assay: as above; assay type: cell-based; conditions: Vero cells, 100TCID50, drug at maximum non-toxic concentration, 72 h, MTT
[8] = test system: Herpes simplex virus type 1 (HSV-1); assay: as above; assay type: cell-based; conditions: Vero cells, 100TCID50, drug at maximum non-toxic concentration, 72 h, MTT
[9] = test system: respiratory syncytial virus (RSV); assay: as above; assay type: cell-based; conditions: Vero cells, 100TCID50, drug at maximum non-toxic concentration, 72 h, MTT
Influenza virus [10] = assay: as above; assay type: cell-based
parainfluenza virus [11] = assay type: in vivo, Kunming mice; conditions: mice infected with parainfluenza virus
[12] = test system: fever induced by beer yeast; assay: Fever induced by beer yeast in rats; assay type: in vivo, Wistar rats; conditions: 100 mg/kg
[13] = test system: sweat secretion of rat paw; assay: Sweat secretion of rat paw (staining method); assay type: in vivo, Wistar rats; conditions: of 10 rats; 35.0 mg/kg subcutaneous
Excerpt: There are sweat glands on the plantar skin of rats, so the changes in sweat secretion can be observed by the purple reaction between the iodine-starch mixture and the sweat. Five hundred Wistar rats, half male and half female, weighing 120-150 g, were taken in the study. […] The rats were placed in a homemade rat-fixing bag to expose both hind limbs. The dirt on the right paw was gently scrubbed with a cotton swab dipped in absolute ethanol. Except for the pilocarpine solution, which was given by subcutaneous injection, other groups were administered by gavage. One hour after administration (30 min after administration in the pilocarpine group), the sweat secreted from the right paw of rats in each group was gently cleaned with a dry cotton swab before the study and during struggling. The right paw was coated with Wotan-[…] reagent A solution (dissolve 2 g of iodine in 100 mL of absolute ethanol) and then coated with Wotan-[…] reagent B solution (mix 50 g of soluble starch and 100 mL of Ricinus conununis oil well) after reagent A was fully absorbed. […] At the end of the test, a rank-sum test was used to analyze the differences among the groups.

[14] = test system: epithelial cells of plantar sweat glands of rats; assay: Sweat secretion of rat paw (histomorphology observation method); assay type: in vivo, Wistar rats; conditions: 30 min after 35.0 mg/kg subcutaneous
Excerpt: After sweat glands activation in rats, besides the increase of sweat secretion, the morphology of the epithelial cells of the sweat glands changes accordingly. Under the optical microscope, the increase and enlargement of vacuoles in the epithelial cells of the sweat glands are observed. Under an electron microscope, the enlarged vacuoles appear to be due to swelling and rupture of mitochondria, enlargement of fusion and secretory vesicles in the epithelial cells of sweat glands. The secretory activity of sweat glands could be understood by observing the histomorphology of the epithelial cells of plantar sweat glands of rats. Three hundred Wistar rats, half male and half female, weighing 120-160 g. were taken in the study. […] Except for the pilocarpine solution given by subcutaneous injection, other groups were administered by gavage. One hour after the control group was given 0.5% carboxymethyl cellulose, 30 min after the positive drug group was given pilocarpine, and 1 h after the administration of forsythin, ginsenoside Rg3 and the panax ginseng-forsythia suspensa composition, the right hind limb was immediately cut off at the level of the ankle joint. […] Observations were made under an optical microscope for changes in the epithelial cells of the plantar sweat glands of rats in each group, mainly the incidence of vacuoles. The statistical processing was performed by X^2 test, and differences among the groups were compared. The above study was repeated for 3 times.

[15] = mice infected with influenza virus, 19.5 mg/kg/day by gavage, 5 days
[16] = 19.5 mg/kg/day by gavage, 5 days

COc1ccc(C2OCC3C(c4ccc(OC5OC(C(=O)O)C(O)C(O)C5O)c(O)c4)OCC23)cc1OC [9-Hydroxy-phillygenin glucuronide, 9-hydroxy phillygenin-8-O-β-D-glucuronide]
Minimum effective concentration MEC (HCMV AD169 strain): 0.4 mg/L
Maximum non-toxic concentration TD0 [1]: 40 mg/L

COc1cc(C2OCC3C(c4ccc5c(c4)OCO5)OCC23)ccc1OC1OC(C(=O)O)C(O)C(O)C1O [33, 34-methylenedioxy phillygenin-8-O-β-D-glucuronide]
Minimum effective concentration MEC (HCMV AD169 strain): 0.4 mg/L
Maximum non-toxic concentration TD0 [1]: 40 mg/L

COc1cc(C2OCC3C(c4ccc(OC5OC(C(=O)O)C(O)C(O)C5O)c(OC)c4)OCC23)ccc1O [33-Hydroxy-phillygenin glucuronide, 33-hydroxy phillygenin-8-O-β-D-glucuronide]
Minimum effective concentration MEC (HCMV AD169 strain): 0.3 mg/L
Maximum non-toxic concentration TD0 [1]: 30 mg/L

CC(=O)Oc1ccccc1C(=O)O [Aspinn]
Swelling rate (%) 15 min ([2]; 15 min after inflammation induction): 8.90±6.70^∗ %
Swelling rate (%) 30 min ([2]; 30 min after inflammation induction): 15.6±12.2^∗ %
Swelling rate (%) 60 min ([2]; 60 min after inflammation induction): 20.3±10.9^∗ %
Swelling rate (%) 120 min ([2]; 120 min after inflammation induction): 21.6±12.1^∗∗ %
Swelling rate (%) 180 min ([2]; 180 min after inflammation induction): 26.1±21.1^∗∗ %
Swelling rate (%) 240 min ([2]; 240 min after inflammation induction): 26.1±16.3^∗∗ %
Swelling rate (%) 300 min ([2]; 300 min after inflammation induction): 34.9±14.6^∗ %
Swelling rate (%) 360 min ([2]; 360 min after inflammation induction): 31.9±12.2^∗ %

Nc1nc(O)c2ncn(COC(CO)CO)c2n1 [Ganciclovir (GCV), Ganciclovir, reference compound]
Minimum effective concentration MEC (HCMV AD169 strain): 10 mg/L
Maximum non-toxic concentration TD0 ([1]; human): 10 mg/L

CCOC(=O)C1=C[C@@H](OC(CC)CC)[C@H](NC(C)=O)[C@@H](N)C1 [Oseltamivir Phosphate, reference compound]
Effective Antiviral Rates (ER%) EV71 (enterovirus 71 (EV71)): 51.86%
Lung index (x̅ ±S) (influenza virus [3]; [15]): 1.178±0.066
Lung index Inhibitory rate (%) (influenza virus [3]; [15]): 19.84%
Lung index compared with the infection model group, in words (influenza virus [3]; mouse, in vivo): decreased significantly
Effective Antiviral Rates (ER%) CoxA16 [4]: 2.95%
Hemagglutinin titer (InX) (influenza virus [5]; 19.5 mg/kg/day by gavage): 20.50±1.123
Inhibitory rate (%) of hemagglutination titer (influenza virus [5]; 19.5 mg/kg/day by gavage): 36.73%
Effective Antiviral Rates (ER%) Parainfluenza virus (Parainfluenza virus [6]): 94.52** %
Hemagglutinin titer (InX) (parainfluenza virus [7]; 19.5 mg/kg/day by gavage): 22.05±1.055
Inhibitory rate (%) of hemagglutination titer (parainfluenza virus [7]; 19.5 mg/kg/day by gavage): 33.40%
Half toxic concentration (TC50) (Vero cells): 832 µg/mL
Maximum non-toxic concentration (TC0) (Vero cells): 0.28 g/L
Effective Antiviral Rates (ER%) ADV (Adenovirus (AdV)): 10.31%
Effective Antiviral Rates (ER%) CVB3 (Coxsackievirus B3 (CVB3)): 1.64%
Effective Antiviral Rates (ER%) HSV-I [8]: 66.56** %
Effective Antiviral Rates (ER%) RSV [9]: 37.60%
Effective Antiviral Rates (ER%) Influenza virus (Influenza virus [10]; Vero cells, 100TCID50, drug at maximum non-toxic concentration, 72 h, MTT): 81.76** %
Lung index (x̅ ±S) (parainfluenza virus [11]; [16]): 1.243±0.054
Lung index Inhibitory rate (%) (parainfluenza virus [11]; [16]): 21.85%
Lung index compared with the infection model group, in words (parainfluenza virus [11]; P < 0.05 or P < 0.01): decreased significantly

CC(=O)Nc1ccc(O)cc1 [Paracetamol, reference compound]
Body temperature change (%) (antipyretic percentage), time post-dose 1 h ([12]; 1 h post-dose): -2.07±0.54^∗∗ %
Body temperature, time post-dose 1 h ([12]; 1 h post-dose): 38.66±0.59 °C
Body temperature change (%) (antipyretic percentage), time post-dose 2 h ([12]; 2 h post-dose): -3.27±0.77^∗∗∗ %
Body temperature, time post-dose 2 h ([12]; 2 h post-dose): 38.19±0.59 °C
Body temperature change (%) (antipyretic percentage), time post-dose 3 h ([12]; 3 h post-dose): -3.80±1.43^∗∗∗ %
Body temperature, time post-dose 3 h ([12]; 3 h post-dose): 37.98±0.19 °C
Body temperature change (%) (antipyretic percentage), time post-dose 4 h ([12]; 4 h post-dose): -4.15±1.59^∗∗∗ %
Body temperature, time post-dose 4 h ([12]; 4 h post-dose): 37.84±0.32 °C

CC[C@@H]1C(=O)OC[C@@H]1Cc1cncn1C [Pilocarpine, reference compound]
Number of animals with sweat spots of each grade at 1 min after application of solution B: grade + [13]: 1 animals
Number of animals with sweat spots of each grade at 1 min after application of solution B: grade ++ [13]: 3 animals
Number of animals with sweat spots of each grade at 1 min after application of solution B: grade +++ [13]: 1 animals
Number of animals with sweat spots of each grade at 1 min after application of solution B: grade +++ (fifth grade column) [13]: 5 animals
Number of animals with sweat spots of each grade at 1 min after application of solution B: grade - [13]: 0 animals
Number of animals with sweat spots of each grade at 5 min after application of solution B: grade + [13]: 1 animals
Number of animals with sweat spots of each grade at 5 min after application of solution B: grade ++ [13]: 2 animals
Number of animals with sweat spots of each grade at 5 min after application of solution B: grade +++ [13]: 1 animals
Number of animals with sweat spots of each grade at 5 min after application of solution B: grade +++ (fifth grade column) [13]: 6 animals
Number of animals with sweat spots of each grade at 5 min after application of solution B: grade - [13]: 0 animals
Number of vacuolar sweat glands (number) [14]: 57 number
Vacuolation rate (%) [14]: 27.40^∗∗∗ %

NC(=O)c1ncn([C@@H]2O[C@H](CO)[C@@H](O)[C@H]2O)n1 [Ribavirin, reference compound]
Effective Antiviral Rates (ER%) EV71 (enterovirus 71 (EV71)): 4.25%
Effective Antiviral Rates (ER%) CoxA16 [4]: 0.70%
Hemagglutinin titer (InX) (influenza virus [5]; 58.5 mg/kg/day by gavage): 21.91±1.050
Inhibitory rate (%) of hemagglutination titer (influenza virus [5]; 58.5 mg/kg/day by gavage): 32.39%
Effective Antiviral Rates (ER%) Parainfluenza virus (Parainfluenza virus [6]): 91.56** %
Hemagglutinin titer (InX) (parainfluenza virus [7]; 58.5 mg/kg/day by gavage): 23.22±1.091
Inhibitory rate (%) of hemagglutination titer (parainfluenza virus [7]; 58.5 mg/kg/day by gavage): 29.86%
Effective Antiviral Rates (ER%) ADV (Adenovirus (AdV)): 0.43%
Effective Antiviral Rates (ER%) CVB3 (Coxsackievirus B3 (CVB3)): 13.44%
Effective Antiviral Rates (ER%) HSV-I [8]: 62.92** %
Effective Antiviral Rates (ER%) RSV [9]: 50.08* %
Effective Antiviral Rates (ER%) Influenza virus (Influenza virus [10]): 57.49** %

From patent US20230338454A1, “FORSYTHIA SUSPENSA COMPONENT AND OPTIONAL PANAX GINSENG COMPONENT AND THE APPLICATION” (priority 2020, published 2023)
